The test concerns CAD cells. Nature of the test: Lysosome motility assay in CAD cell neurites (LysoTracker). It counts as cell-based, murine. To be noted: for Percentage of retrograde-directed lysosomes moving slower than 25 nm/s: 60 min; for Average track length of moving particles (lysosomes): 1 min imaging, control 32 ± 11 µm. The text has this:
This bidirectional transport of lysosomes requires kinesins and dynein 1 and can be observed by imaging live cells stained with the LysoTracker dye ([Vale, 2003]; [Pu et al., 2016]). A coupling between anterograde and retrograde motion has been described for membrane-bound organelles, with disruption of dynein-driven motion blocking bi-directional organelle motility ([Barlan et al., 2013]). We imaged control solvent (0.1% DMSO) treated cells and observed bidirectional motion of LysoTracker-labelled puncta (Figure 5E,H,K, Video 5). Overlays of successive images from a time-lapse series, color-coded for displacement, reveal organelle displacements (Figure 5H–J). […] Treatment with dynapyrazole-A suppressed bidirectional motion. In particular, the percentage of retrograde-directed lysosomes moving slower than 25 nm/s increased to ~47% (3.5µM) and ~59% (5µM) while the proportion of lysosomes moving at speeds > 250 nm/s decreased to below 10% (Figure 5N). We observed equivalent effects of dynapyrazole-A on anterograde motion velocities (kymographs in Figure 5K,L and M). In control cells, lysosomes with measureable displacements had trajectories that averaged 32 ± 11 µm (Figure 5O). Dynapyrazole-A (3.5 µM, Figure 5I and L) reduced the average track length of moving particles to 15.7 ± 4.7 µm, which can be seen as white punctae that result from the overlay of multiple color-coded frames without particle translocation. A higher dose of dynapyrazole-A 5 µM) shortened the average track length of moving particles to 6.7 ± 2.7 µm (Figure 5J,M,O). […] Higher concentrations of dynapyrazole-A (15 µM) lowered intracellular ATP levels by ~70% at 3 hr (Figure 5—figure supplement 5).
CAD cells (catecholaminergic neuronal tumor cell line, RRID:CVCL_0199) were maintained in DMEM/F12 medium with 10% Fetal Bovine Serum ([Qi et al., 1997]). Cell line identity was confirmed by the morphological response to serum withdrawal (i.e. neurite formation), a previously-documented characteristic of this cell line ([Qi et al., 1997]). 24 hr before the experiment cells were plated on coverslips in serum-free medium to induce neurite formation. Cells were treated with inhibitors or control solvent (0.1% DMSO final in all experiments) for 60 min, then lysosomes were labeled with 0.1 µM (final concentration) LysoTracker Red DND-99 (Molecular Probes) and used for microscopy immediately after LysoTracker addition.
Microscopy was performed using a Nikon TE-2000 inverted microscope equipped with a LED X-Cite illuminator (Lumen Dynamics) at 37 degrees. Images were acquired with a Hamamatsu ORCA-Flash 4.0 camera driven by MetaMorph software at a rate of 1 frame per second for 1 min. Lysosome motility in neurites was analyzed using Diatrack software (http://www.diatrack.org/), particle velocities were measured from frame to frame and the total length of trajectories divided by the number of analyzed organelles was calculated for every experimental condition.

Structures are written as SMILES.

Consider one molecule from PMC5478271, “Chemical structure-guided design of dynapyrazoles, cell-permeable dynein inhibitors with a unique mode of action” (eLife, 2017).

In the case of `N#Cc1c(C2(c3ccc(Cl)cc3)CC2)nn2c1[nH]c(=O)c1cc(I)ccc12` [Compound 8, 2-[1-(4-chlorophenyl)cyclopropyl]-7-iodo-5-oxo-4H-pyrazolo[1,5-a]quinazoline-3-carbonitrile], the “Proportion of lysosomes moving at speeds > 250 nm/s” value (3.5 µM and 5 µM, control ~20%) is reported as “below 10%”. In addition, the “Percentage of retrograde-directed lysosomes moving slower than 25 nm/s” value runs as follows: (3.5 µM, control ~20%) ~ 47%; (5 µM, control ~20%) ~ 59%. Moreover, the “Average track length of moving particles (lysosomes)” value (3.5 µM) turned out to be 15.7 ± 4.7 µm and the “Average track length of moving particles (lysosomes)” value (5 µM) turned out to be 6.7 ± 2.7 µm.
